Measured values reported in patent publication US12319672B2, “Alpha-D-galactopyranoside derivatives” (Idorsia Pharmaceuticals Ltd, priority 2019, dated 2025).

Assays:
human Gal-1 (hGal-1) = assay: Competitive binding assay: binding of biotinylated hGal-1 to microplate-adsorbed asialofetuin (ASF); settings: Activities on hGal-1; mean values of several measurements
How it was run: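 Spectrophotometric readout (streptavidin-peroxidase, ABTS) of biotinylated galectin retained on ASF-coated wells. Biotinylated hGal-1 or hGal-3, 300-1000 ng/mL, co-incubated with test compound 3 h at 4° C, then washed. Mean IC50 from repeat runs.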

human Gal-3 (hGal-3) = human Gal-3 (hGal-3) (Homo sapiens (Human), UniProt P17931); assay: Competitive binding assay: binding of biotinylated hGal-3 to microplate-adsorbed asialofetuin (ASF); settings: Activity on hGal-3; mean values of several measurements
How it was run: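 Compounds in DMSO dilution series competed with 300-1000 ng/mL biotinylated hGal-3 for asialofetuin adsorbed on the plate (3 h, 4° C). Streptavidin-peroxidase at 80 ng/mL (1 h, 4° C) with ABTS gave a spectrophotometric read-out, and IC50 was reported as the mean of repeat runs.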

Chain of human Gal-3 (hGal-3) (P17931 whole entry): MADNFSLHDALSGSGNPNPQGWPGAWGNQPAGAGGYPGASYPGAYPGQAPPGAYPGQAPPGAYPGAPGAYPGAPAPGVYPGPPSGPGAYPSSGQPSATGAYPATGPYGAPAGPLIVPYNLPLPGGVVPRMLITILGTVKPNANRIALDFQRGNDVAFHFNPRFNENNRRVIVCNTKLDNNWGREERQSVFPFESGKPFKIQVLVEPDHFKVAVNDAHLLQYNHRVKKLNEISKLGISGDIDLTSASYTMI
Chain of human Gal-1 (hGal-1) (P09382 2-135 limits assumed): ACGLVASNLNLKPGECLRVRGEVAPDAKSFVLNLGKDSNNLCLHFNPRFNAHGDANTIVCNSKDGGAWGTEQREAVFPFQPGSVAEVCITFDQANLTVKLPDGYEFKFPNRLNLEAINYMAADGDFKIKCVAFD

SMILES | IC50 (human Gal-1 (hGal-1)) | IC50 (human Gal-3 (hGal-3))
CC(C)(C)OC(=O)N1CCC(C2=NOC(C[C@H]3O[C@H](CO)[C@H](O)[C@H](n4cc(-c5c(F)cccc5F)nn4)[C@H]3O)C2)CC1 (stereo partly shown) [Ex 1.298] | 990 nM | 2500 nM
COc1cccc(-c2cn([C@H]3[C@@H](O)[C@@H](CO)O[C@H](CC4CC(C5CCN(C(=O)OC(C)(C)C)CC5)=NO4)[C@@H]3O)nn2)c1 (stereo partly shown) [Ex 1.300] | 2270 nM | 1410 nM
CC(C)(C)OC(=O)N1CCC(C2=NOC(C[C@H]3O[C@H](CO)[C@H](O)[C@H](n4cc(-c5cccc(C(F)(F)F)c5)nn4)[C@H]3O)C2)CC1 (stereo partly shown) [Ex 1.301] | 2890 nM | 2700 nM
CO[C@@H]1[C@@H](n2cc(-c3cc(F)c(F)c(F)c3)nn2)[C@@H](O)[C@@H](CO)O[C@@H]1Cc1cc(C(C)(C)C(F)F)no1 [Ex 1.303] | 550 nM | 140 nM
CO[C@@H]1[C@@H](n2cc(-c3ccc4ccccc4c3)nn2)[C@@H](O)[C@@H](CO)O[C@@H]1CC1CC(C2CCN(C(=O)OC(C)(C)C)CC2)=NO1 (stereo partly shown) [Ex 1.304] | 3910 nM | 1620 nM
CO[C@@H]1[C@@H](n2cc(-c3cccc4ccccc34)nn2)[C@@H](O)[C@@H](CO)O[C@@H]1CC1CC(C2CCN(C(=O)OC(C)(C)C)CC2)=NO1 (stereo partly shown) [Ex 1.305] | 1180 nM | 1860 nM
CO[C@@H]1[C@@H](n2cc(-c3cc(F)c(F)c(F)c3)nn2)[C@@H](O)[C@@H](CO)O[C@@H]1Cc1cc(C)no1 [Ex 1.306] | 6190 nM | 1220 nM
CCc1cc(C[C@H]2O[C@H](CO)[C@H](O)[C@H](n3cc(-c4cc(F)c(F)c(F)c4)nn3)[C@H]2OC)on1 [Ex 1.307] | 7220 nM | 670 nM
CO[C@@H]1[C@@H](n2cc(-c3cc(F)c(F)c(F)c3)nn2)[C@@H](O)[C@@H](CO)O[C@@H]1Cc1cc(C(C)C)no1 [Ex 1.308] | 2370 nM | 180 nM
CCOC(C)(C)c1cc(C[C@H]2O[C@H](CO)[C@H](O)[C@H](n3cc(-c4cc(F)c(F)c(F)c4)nn3)[C@H]2OC)on1 [Ex 1.309] | 2740 nM | 690 nM
CO[C@@H]1[C@@H](n2cc(-c3ccccc3)nn2)[C@@H](O)[C@@H](CO)O[C@@H]1CC1CC(C2CCN(C(=O)OC(C)(C)C)CC2)=NO1 (stereo partly shown) [Ex 1.310] | 480 nM | 3620 nM
CO[C@@H]1[C@@H](n2cc(-c3nc(Br)cs3)nn2)[C@@H](O)[C@@H](CO)O[C@@H]1CC1CC(C2CCN(C(=O)OC(C)(C)C)CC2)=NO1 (stereo partly shown) [Ex 1.311] | 65 nM | 2380 nM
CO[C@@H]1[C@@H](n2cc(-c3cc(F)c(F)c(F)c3)nn2)[C@@H](O)[C@@H](CO)O[C@@H]1Cc1cc(C2(O)CCCC2)no1 [Ex 1.312] | 4240 nM | 140 nM
CO[C@@H]1[C@@H](n2cc(-c3cc(F)c(F)c(F)c3)nn2)[C@@H](O)[C@@H](CO)O[C@@H]1Cc1cc(C2(CC#N)CC2)no1 [Ex 1.313] | 2940 nM | 130 nM
COCC(C)(C)c1cc(C[C@H]2O[C@H](CO)[C@H](O)[C@H](n3cc(-c4cc(F)c(F)c(F)c4)nn3)[C@H]2OC)on1 [Ex 1.314] | 1380 nM | 130 nM
CO[C@@H]1[C@@H](n2cc(-c3cc(F)c(F)c(F)c3)nn2)[C@@H](O)[C@@H](CO)O[C@@H]1Cc1cc(C(C)(C)CNC(=O)OC(C)(C)C)no1 [Ex 1.315] | 2210 nM | 270 nM
CO[C@@H]1[C@@H](n2cc(-c3cc(F)c(F)c(F)c3)nn2)[C@@H](O)[C@@H](CO)O[C@@H]1Cc1cc(C(C)(C)CN)no1 [Ex 1.316] | 2200 nM | 190 nM
CO[C@@H]1[C@@H](n2cc(-c3ccc(C)c(F)c3F)nn2)[C@@H](O)[C@@H](CO)O[C@@H]1Cc1cc(C(O)(c2ccccn2)C2CC2)on1 (stereo partly shown) [Ex 1.317] | 9690 nM | 310 nM
CO[C@@H]1[C@@H](n2cc(-c3ccc(C)c(F)c3F)nn2)[C@@H](O)[C@@H](CO)O[C@@H]1Cc1cc(C(C)(O)c2ccccc2)on1 (stereo partly shown) [Ex 1.318] | 8870 nM | 160 nM

Next, values leading:

IC50 (human Gal-1 (hGal-1)) | IC50 (human Gal-3 (hGal-3)) | SMILES
7160 nM | 140 nM | CO[C@@H]1[C@@H](n2cc(-c3ccc(C)c(F)c3F)nn2)[C@@H](O)[C@@H](CO)O[C@@H]1Cc1cc(C2(O)CC2)on1 [Ex 1.319]
2620 nM | 75 nM | CO[C@@H]1[C@@H](n2cc(-c3ccc(C)c(F)c3F)nn2)[C@@H](O)[C@@H](CO)O[C@@H]1Cc1cc(C2(C)COC2)on1 [Ex 1.320]
9170 nM | 400 nM | CO[C@@H]1[C@@H](n2cc(-c3ccc(C)c(F)c3F)nn2)[C@@H](O)[C@@H](CO)O[C@@H]1Cc1cc(C(C)(O)c2ccccc2F)on1 (stereo partly shown) [Ex 1.321]
> 100000 nM | 310 nM | CO[C@@H]1[C@@H](n2cc(-c3ccc(C)c(F)c3F)nn2)[C@@H](O)[C@@H](CO)O[C@@H]1Cc1cc(C2(Oc3cncc(Br)c3)COC2)on1 [Ex 1.322]
5080 nM | 620 nM | CCC(O)(CC)c1cc(C[C@H]2O[C@H](CO)[C@H](O)[C@H](n3cc(-c4ccc(C)c(F)c4F)nn3)[C@H]2OC)no1 [Ex 1.323]
3570 nM | 140 nM | CO[C@@H]1[C@@H](n2cc(-c3ccc(C)c(F)c3F)nn2)[C@@H](O)[C@@H](CO)O[C@@H]1Cc1cc(C2(CO)CC2)on1 [Ex 1.324]
600 nM | 17 nM | CCOC(=O)N1CCC(C)(c2cc(C[C@H]3O[C@H](CO)[C@H](O)[C@H](n4cc(-c5ccc(C)c(F)c5F)nn4)[C@H]3OC)on2)CC1 [Ex 1.325]
2870 nM | 57 nM | CO[C@@H]1[C@@H](n2cc(-c3ccc(C)c(F)c3F)nn2)[C@@H](O)[C@@H](CO)O[C@@H]1Cc1cc(C2(O)CCCC2)no1 [Ex 1.326]
4170 nM | 76 nM | CCOC(C)(C)c1cc(C[C@H]2O[C@H](CO)[C@H](O)[C@H](n3cc(-c4ccc(C)c(F)c4F)nn3)[C@H]2OC)on1 [Ex 1.327]
960 nM | 77 nM | COc1ccc(-c2cn([C@H]3[C@@H](O)[C@@H](CO)O[C@H](CC4CC(C5CCN(C(=O)OC(C)(C)C)CC5)=NO4)[C@@H]3OC)nn2)c(F)c1F (stereo partly shown) [Ex 1.328]
440 nM | 69 nM | CO[C@@H]1[C@@H](n2cc(-c3cccc(F)c3F)nn2)[C@@H](O)[C@@H](CO)O[C@@H]1CC1CC(C2CCN(C(=O)OC(C)(C)C)CC2)=NO1 (stereo partly shown) [Ex 1.329]
4360 nM | 61 nM | COCC(C)(C)c1cc(C[C@H]2O[C@H](CO)[C@H](O)[C@H](n3cc(-c4ccc(C)c(F)c4F)nn3)[C@H]2OC)on1 [Ex 1.330]
1990 nM | 58 nM | CO[C@@H]1[C@@H](n2cc(-c3ccc(C)c(F)c3F)nn2)[C@@H](O)[C@@H](CO)O[C@@H]1Cc1cc(C(C)(C)CNC(=O)OC(C)(C)C)no1 [Ex 1.331]
980 nM | 43 nM | CO[C@@H]1[C@@H](n2cc(-c3ccc(C)c(F)c3F)nn2)[C@@H](O)[C@@H](CO)O[C@@H]1Cc1cc(C2(CC#N)CC2)no1 [Ex 1.332]
6990 nM | 10 nM | Cc1ccc(-c2cn([C@H]3[C@@H](O)[C@@H](CO)O[C@H](Cc4cc(C5(C)CC5)no4)[C@@H]3O)nn2)c(F)c1F [Ex 1.333]
3310 nM | 24 nM | Cc1ccc(-c2cn([C@H]3[C@@H](O)[C@@H](CO)O[C@H](Cc4cc(C(C)(C)CO)no4)[C@@H]3O)nn2)c(F)c1F [Ex 1.334]
3780 nM | 26 nM | Cc1ccc(-c2cn([C@H]3[C@@H](O)[C@@H](CO)O[C@H](Cc4cc(C5(C)COC5)no4)[C@@H]3O)nn2)c(F)c1F [Ex 1.335]
1880 nM | 23 nM | CO[C@@H]1[C@@H](n2cc(-c3ccc(C)c(F)c3F)nn2)[C@@H](O)[C@@H](CO)O[C@@H]1Cc1cc(C(C)(C)CN)no1 [Ex 1.336]
420 nM | 55 nM | CO[C@@H]1[C@@H](n2cc(-c3cc(F)c(F)c(F)c3)nn2)[C@@H](O)[C@@H](CO)O[C@@H]1Cc1cc(C2CCNC(=O)CC2)no1 (stereo partly shown) [Ex 1.337]
1980 nM | 150 nM | CO[C@@H]1[C@@H](n2cc(-c3ccc(C#N)c(F)c3F)nn2)[C@@H](O)[C@@H](CO)O[C@@H]1Cc1cc(C(C)(C)C)no1 [Ex 1.338]
10000 nM | 280 nM | CO[C@@H]1[C@@H](n2cc(-c3ccc(C)c(F)c3F)nn2)[C@@H](O)[C@@H](CO)O[C@@H]1Cc1cc(C(C)(O)c2ccccc2)on1 (stereo partly shown) [Ex 1.339]
10400 nM | 330 nM | CO[C@@H]1[C@@H](n2cc(-c3ccc(C)c(F)c3F)nn2)[C@@H](O)[C@@H](CO)O[C@@H]1Cc1cc(C(C)(O)c2ccccc2)on1 (stereo partly shown) [Ex 1.340]
33000 nM | 550 nM | CO[C@@H]1[C@@H](n2cc(-c3ccc(C)c(F)c3F)nn2)[C@@H](O)[C@@H](CO)O[C@@H]1Cc1cc(C(C)c2ccccc2)no1 (stereo partly shown) [Ex 1.342]
9190 nM | 93 nM | CO[C@@H]1[C@@H](n2cc(-c3ccc(C)c(F)c3F)nn2)[C@@H](O)[C@@H](CO)O[C@@H]1Cc1cc([C@@H]2CC[C@H]2O)on1 [Ex 1.343]
17000 nM | 40 nM | CC(=O)O[C@@H]1[C@@H](n2cc(-c3ccc(C)c(F)c3F)nn2)[C@@H](O)[C@@H](CO)O[C@@H]1Cc1cc([C@@H]2CCC[C@H]2O)on1 [Ex 1.344]
720 nM | 44 nM | CO[C@@H]1[C@@H](n2cc(-c3ccc(C)c(F)c3F)nn2)[C@@H](O)[C@@H](CO)O[C@@H]1Cc1cc(C2CCC(=O)N(C)CC2)no1 (stereo partly shown) [Ex 1.345]
11700 nM | 100 nM | CO[C@@H]1[C@@H](n2cc(-c3ccc(C)c(F)c3F)nn2)[C@@H](O)[C@@H](CO)O[C@@H]1Cc1cc(C2CCC2O)on1 (stereo partly shown) [Ex 1.346]
8210 nM | 110 nM | CO[C@@H]1[C@@H](n2cc(-c3ccc(C)c(F)c3F)nn2)[C@@H](O)[C@@H](CO)O[C@@H]1Cc1cc(C2CCC2O)on1 (stereo partly shown) [Ex 1.347]
